The values that follow come from patent US20250003953A1, “Methods and Model Systems for Assessing Therapeutic Properties of Candidate Agents and Related Computer Readable Media and Systems” (The Regents of the University of California, priority 2021, published 2025).

The structures appear in SMILES notation.

For assay [1], the system named is patients derived xenografts (PDX) grown as pooled organoids. The assay can be described thus: Cell cycle inhibition rates from GENEVA in pooled PDX. The format is cell-based, human. The note with it: PDX with known KRAS.G12C mutations; in vivo and ex vivo systems. An excerpt: Using growth-rate balanced heterogeneous cell pools adjusted for long time-course drug treatment, pools were created from four human patient-derived xenograft (PDX) models and implanted as a pooled tumor in a flank xenograft mouse model. The pooled tumors were drugged in mice by oral dosing by gavage for fourteen days with the molecule ARS-1620. After the treatment interval, tumors were harvested from mice, and single-cell RNA sequencing, genetic demultiplexing (as illustrated in Example 2), and sample hashing using barcoded antibodies was performed. Sufficient numbers of cells were observed from each PDX genetic background and drug treatment condition (FIG. 2C,D) for inference of drug phenotype and drug changes to the transcriptome. Pools from four PDX models were created for implantation for a fourteen day drug treatment in a 3D Organoid model system. […]
Cell Cycle was calculated by regressing whole transcriptome readouts and weighting according to specified genes of interest related to different cell cycle states. Cells were assigned into G1, S, and G2/M. The cell cycle ratio was then calculated as fraction of cells per population: […]
yielded a function where the slope was determined as the cell cycle inhibition rate, reflecting an alternative way to measure phenotype derived solely from transcriptome drug perturbation data over a long time course.

For assay [2], the system named is H2030 (KRAS.G12C) cells. As to the kind of experiment: Seahorse assay measuring oxygen consumption. The format is cell-based, human. The note with it: 2 h after treatment.
Assay [3] concerns lipid peroxidation. As to the kind of experiment: Lipid peroxidation live cell probe dose curve and survival kinetics. The format is cell-based. An excerpt: FIG. 7B plots gene expression of anti-ferroptotic genes for each cell line in response to increasing ARS1620 dosage. […] Lipid peroxidation and survival kinetics cross over around IC50 in all compounds indicating ARS1620 performs as a ferroptosis inducing agent.
Among this group of genes were FTH1 and FTL, the two components of the Ferritin Complex, which is responsible for sequestration of labile free iron. Using a lipid peroxidation live cell probe, lipid peroxidation—one of the hallmark phenotypes of ferroptosis—was measured in response to ARS-1620 treatment.

Assay [4] concerns KRAS.G12C cell line H2030. As to the kind of experiment: Lipid peroxidation by KRAS inhibitors in KRAS.G12C line. The format is cell-based, human. The method, then:
FIG. 7B plots gene expression of anti-ferroptotic genes for each cell line in response to increasing ARS1620 dosage.
Using a lipid peroxidation live cell probe, lipid peroxidation—one of the hallmark phenotypes of ferroptosis—was measured in response to ARS-1620 treatment.

Assay [5] concerns KRAS.G12C cell lines in a cell pool. The assay can be described thus: GENEVA pool gene set expression after drug, in vivo. On the set-up: species or system mouse. The note with it: post-drug treatment. The method, then:
2 mL of Matrigel Basement Membrane reagent was added to the GENEVA pool prepared by growth rate balancing for a final concentration of 20M/mL. One hundred microliters of this solution was injected into NSG mice in a flank xenograft injection. Twenty-four hours later, mice harboring GENEVA tumors were drugged with the drug compound in a vehicle solution of 5% DMSO, 95% Labrasol. Mice were dosed by oral gavage four fourteen days with five days on, two days off. On the fourteenth day, mice were sacrificed, tumors harvested by homogenization with surgical shears and resuspended in 5 mg/mL Liberase™ Cell Dissociation Reagent in 1:1 DMEM: F12 cell media, DNAse I (10 U/uL). Tumors were incubated in a 37° C. incubator with shaking at 600 RPMs for 45 minutes for enzymatic dissociation and then spun down at 800 g for 5 minutes at 4° C. Dissociated tumors were resuspended in 100 uL 1×PBS.
The GENEVA datasets were compared where GENEVA pools were drugged with the KRAS.G12C inhibitor ARS1620, conducted both in vitro and in vivo. Specifically, the in vitro data were compared against the in vivo data to look for differences and similarities attributable to the context of the model systems used. […]
For in vivo and in vitro datasets, we combined the median z score results determined in Example 8 and t-test results, respectively, were combined on a paired geneset by geneset basis. […]

Assay [6] has the same test system. As to the kind of experiment: GENEVA pool gene set expression after drug, in vitro. The note with it: post-drug treatment. The format is cell-based, human. From the text:
The GENEVA datasets were compared where GENEVA pools were drugged with the KRAS.G12C inhibitor ARS1620, conducted both in vitro and in vivo. Specifically, the in vitro data were compared against the in vivo data to look for differences and similarities attributable to the context of the model systems used. […] As a validation study, a combination therapy multi-arm in vivo mouse study was designed to test the efficacy of an EMT inhibitor, Galunisertib in combination with ARS1620.
For in vivo and in vitro datasets, we combined the median z score results determined in Example 8 and t-test results, respectively, were combined on a paired geneset by geneset basis. The combined zscore results table from both in vivo and in vitro was then used to calculate an “in vivo Specificity Score” as follows:
For each geneset, “in vivo Specificity Score”=[(in vivo median zscore)−(in vitro median zscore)]/mean([log 10 (in vivo pvalue), log 10 (in vitro pvalue)]

Take `C=CC(=O)N1CCN(c2ncnc3c(F)c(-c4c(O)cccc4F)c(Cl)cc23)CC1` [ARS1620]: in assay [1], the “drug sensitivity by estimation of cell cycle inhibition rates” value was “shown to be sensitive to the compound (patients 877 and 233)”. Besides, the “oxygen consumption / mitochondrial respiration” value in assay [2] is “significant difference in functional oxygen consumption”. Besides, in assay [3] (48 h, fluorescent lipid peroxidation sensor), the “lipid peroxidation dose response” value is on record as “induced lipid peroxidation in a dose dependent fashion”. Moreover, the “cross-over of survival and normalized lipid peroxidation curves” value in assay [3] (dose curves) was “crossed over around the IC50 survival value”. Besides, in assay [4], the lipid peroxidation entry was “increased lipid peroxidation”. Further, the “endothelial-mesenchymal transition hallmark gene expression signature” value in assay [5] was “increased in vivo”; in assay [6], “showed no difference in vitro”.
